Assay results taken from US20140378408A1, “NUCLEOSIDE 5'-PHOSPHOROTHIOATE ANALOGUES AND USES THEREOF” (BAR-ILAN UNIVERSITY, an Israeli University, priority 2012, published 2014).

How the values were obtained:
[1] = target: T1, human NPP1 (Homo sapiens, UniProt P22413); test: Hydrolysis by human NPP1; format: in vitro ADME; settings: for Hydrolysis by NPP1: 100 μM, 1 h, compared to ATP; for Relative hydrolysis by NPP1: over 2 h
T1 construct: made in house; host or cells: COS-7 cells (transfected; protein extract / cell lysate)
T1 sequence (P22413 1-925): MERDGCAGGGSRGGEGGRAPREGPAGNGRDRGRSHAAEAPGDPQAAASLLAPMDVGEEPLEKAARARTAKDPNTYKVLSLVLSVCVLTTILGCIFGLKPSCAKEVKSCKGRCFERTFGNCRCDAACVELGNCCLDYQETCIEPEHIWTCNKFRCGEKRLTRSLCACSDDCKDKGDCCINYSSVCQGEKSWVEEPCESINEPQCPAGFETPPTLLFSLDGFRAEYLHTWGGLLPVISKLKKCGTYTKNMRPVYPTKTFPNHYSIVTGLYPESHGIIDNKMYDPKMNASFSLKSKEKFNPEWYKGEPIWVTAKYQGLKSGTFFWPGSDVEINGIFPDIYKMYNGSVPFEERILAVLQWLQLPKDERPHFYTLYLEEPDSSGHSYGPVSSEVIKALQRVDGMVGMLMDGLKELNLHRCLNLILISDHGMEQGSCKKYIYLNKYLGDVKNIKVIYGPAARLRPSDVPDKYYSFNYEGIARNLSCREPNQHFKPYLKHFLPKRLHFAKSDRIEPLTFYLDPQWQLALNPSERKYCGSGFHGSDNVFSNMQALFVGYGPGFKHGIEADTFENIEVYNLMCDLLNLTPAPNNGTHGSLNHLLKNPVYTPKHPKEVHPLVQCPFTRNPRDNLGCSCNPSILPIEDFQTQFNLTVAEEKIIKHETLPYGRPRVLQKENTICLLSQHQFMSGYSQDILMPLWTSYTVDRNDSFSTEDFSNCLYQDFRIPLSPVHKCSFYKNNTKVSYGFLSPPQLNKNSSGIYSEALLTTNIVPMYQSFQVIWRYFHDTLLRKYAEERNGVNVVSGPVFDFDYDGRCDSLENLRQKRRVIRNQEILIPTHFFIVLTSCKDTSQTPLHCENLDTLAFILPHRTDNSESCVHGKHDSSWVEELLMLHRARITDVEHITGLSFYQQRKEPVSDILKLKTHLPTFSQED

[2] = target: T1, human NPP1; test: Inhibition of NPP1 activity; format: biochemical; settings: pNP-TMP 5·10^−5 M
[3] = target: T2, human NPP3 (Homo sapiens, UniProt O14638); test: Inhibition of NPP3 activity; format: biochemical; settings: for inhibition at 100 µM: read-out: inhibition of NPP3 activity; for inhibition of pnp-TMP hydrolysis by NPP3: analogue and pnp-TMP 100 μM
T2 construct: made in house; host or cells: COS-7 cells (transfected; protein extract / cell lysate)
T2 sequence (O14638 1-875): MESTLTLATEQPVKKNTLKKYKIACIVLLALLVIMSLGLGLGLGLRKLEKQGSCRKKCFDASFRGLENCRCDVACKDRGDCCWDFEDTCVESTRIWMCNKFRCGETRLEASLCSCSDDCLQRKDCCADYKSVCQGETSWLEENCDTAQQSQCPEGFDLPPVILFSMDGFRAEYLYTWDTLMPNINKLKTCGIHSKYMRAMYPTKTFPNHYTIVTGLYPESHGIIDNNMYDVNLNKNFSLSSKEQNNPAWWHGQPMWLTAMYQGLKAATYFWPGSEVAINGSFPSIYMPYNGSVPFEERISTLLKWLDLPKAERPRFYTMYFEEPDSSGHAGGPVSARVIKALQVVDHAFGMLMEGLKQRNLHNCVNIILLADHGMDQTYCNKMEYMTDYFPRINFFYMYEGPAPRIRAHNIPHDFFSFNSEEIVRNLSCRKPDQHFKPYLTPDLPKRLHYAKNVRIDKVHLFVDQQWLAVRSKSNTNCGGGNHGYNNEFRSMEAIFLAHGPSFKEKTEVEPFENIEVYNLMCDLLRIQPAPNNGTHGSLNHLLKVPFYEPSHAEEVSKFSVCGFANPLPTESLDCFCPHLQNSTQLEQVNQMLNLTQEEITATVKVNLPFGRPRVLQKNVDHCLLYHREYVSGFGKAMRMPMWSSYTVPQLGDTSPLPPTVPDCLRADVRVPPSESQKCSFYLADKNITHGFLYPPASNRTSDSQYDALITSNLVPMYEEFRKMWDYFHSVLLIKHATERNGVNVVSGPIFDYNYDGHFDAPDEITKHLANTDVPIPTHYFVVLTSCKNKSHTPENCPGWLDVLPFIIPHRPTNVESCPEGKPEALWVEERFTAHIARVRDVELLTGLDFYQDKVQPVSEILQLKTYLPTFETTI
Protocol: Pnp-TMP hydrolyses were carried out at 37° C. in 0.2 ml of the following incubation mixture: in mM, 1 CaCl2, 130 NaCl, 5 KCl and 50 Tris, pH 8.5, with or without the analogue tested and/or substrates. Substrates and analogues were all used at the final concentration of 100 μM. […] For pnp-TMP hydrolysis, the production of para-nitro-phenol was measured at […], 15 min after the initiation of the reaction.
The samples were centrifuged for 5 min at 13,000×g. Supernatants were neutralized with 1 M KOH (Fisher Scientific, Ottawa, ON, Canada) at 4° C. and centrifuged for 5 min at 13,000×g.

## Nc1ncnc2c1ncn2[C@@H]1O[C@H](COP(O)(=S)OP(=O)(O)CP(=O)(O)O)[C@@H](O)[C@H]1O (single isomer, unassigned; isomer a) [APPCP-α-S (isomer A), adenosine 5′-[Pα-thio]-β,γ-methylenetriphosphate]
[1]
  Hydrolysis by NPP1: fully stable
[2]; listed as APPCP-α-S A
  IC50: 16.3 ± 0.04 µM

## Nc1ncnc2c1ncn2[C@@H]1O[C@H](COP(O)(=S)OP(=O)(O)C(Cl)(Cl)P(=O)(O)O)[C@@H](O)[C@H]1O (single isomer, unassigned) [APPCCl2P-α-S, adenosine 5′-[Pα-thio]-β,γ-(dichloromethylene)triphosphate]
[3]
  inhibition of the hydrolysis of ATP by NPP3: 33%
  inhibition at 100 µM: 23 to 43%

## Nc1ncnc2c1ncn2[C@@H]1O[C@H](COP(=O)(O)OP(O)(O)=S)[C@@H](O)[C@H]1O [ADP-β-S, adenosine 5′-[β-thio]diphosphate, reference compound]
[1]
  Relative hydrolysis by NPP1: not metabolized at all
[3]
  inhibition of pnp-TMP hydrolysis by NPP3: less than 50%

## adenosine-5′-tetrathiobisphosphonate
[1]
  Relative hydrolysis by NPP1: not metabolized at all
[3]
  inhibition of pnp-TMP hydrolysis by NPP3: 7%

## Nc1ncnc2c1ncn2[C@@H]1O[C@H](COP(O)(=S)OP(=O)(O)CP(=O)(O)O)[C@@H](O)[C@H]1O (single isomer, unassigned; isomer b) [APPCP-α-S (isomer B), adenosine 5′-[Pα-thio]-β,γ-methylenetriphosphate]
[1]
  Hydrolysis by NPP1: ~4%
[2]; listed as APPCP-α-S B
  IC50: 18.7 ± 0.03 µM

## Nc1ncnc2c1ncn2[C@@H]1O[C@H](COP(O)(=S)OP(=O)(O)C(Cl)(Cl)P(=O)(O)O)[C@@H](O)[C@H]1O (single isomer, unassigned; isomer b) [APPCCl2P-α-S (isomer B), adenosine 5′-[Pα-thio]-β,γ-(dichloromethylene)triphosphate]
[2]
  IC50: 31.2 ± 0.1 µM

## Nc1ncnc2c1ncn2[C@@H]1O[C@H](COP(=O)(O)CP(=O)(O)OP(O)(O)=S)[C@@H](O)[C@H]1O [APCPP-γ-S, adenosine 5′-[Pγ-thio]-α,β-methylenetriphosphate]
[3]
  inhibition at 100 µM: 23 to 43%
[2]
  IC50: 0.39 ± 0.001 µM

## di-adenosine-5′,5″-tetrathiobisphosphonate
[1]
  Relative hydrolysis by NPP1: not metabolized at all
[3]
  inhibition of pnp-TMP hydrolysis by NPP3: 20%
